Literature values, collected in article PMC3289745 (Peptides, 2011).

Test system: conscious male rats
Conditions: central injection of neuronostatin; 30 minutes post-injection

Substance: neuronostatin
- increase in plasma AVP levels relative to saline-injected controls: 2–3 times
